Values of other authors as cited in article PMC9516332 (Frontiers in Oncology, 2022).
Read-outs that look alike come from different tables or passages of the source.

Key:
Details in all cases: cited from earlier work
[1] = biological target: T1, panel of 255 wild-type kinases (Homo sapiens, UniProt Q9BXA7)
T1 sequence (Q9BXA7 1-367): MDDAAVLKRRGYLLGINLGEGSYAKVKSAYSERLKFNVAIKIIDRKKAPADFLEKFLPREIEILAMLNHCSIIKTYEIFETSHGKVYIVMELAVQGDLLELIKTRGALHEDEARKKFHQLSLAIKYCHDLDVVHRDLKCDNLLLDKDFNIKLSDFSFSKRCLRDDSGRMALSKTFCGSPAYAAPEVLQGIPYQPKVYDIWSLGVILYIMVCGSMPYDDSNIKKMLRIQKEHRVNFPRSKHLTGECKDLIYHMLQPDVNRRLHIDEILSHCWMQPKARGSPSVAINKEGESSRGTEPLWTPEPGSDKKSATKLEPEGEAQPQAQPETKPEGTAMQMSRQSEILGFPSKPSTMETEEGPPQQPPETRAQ

[2] = biological target: T2, panel of 255 wild-type kinases (Homo sapiens, UniProt Q96BR1)
T2 sequence (Q96BR1 1-496): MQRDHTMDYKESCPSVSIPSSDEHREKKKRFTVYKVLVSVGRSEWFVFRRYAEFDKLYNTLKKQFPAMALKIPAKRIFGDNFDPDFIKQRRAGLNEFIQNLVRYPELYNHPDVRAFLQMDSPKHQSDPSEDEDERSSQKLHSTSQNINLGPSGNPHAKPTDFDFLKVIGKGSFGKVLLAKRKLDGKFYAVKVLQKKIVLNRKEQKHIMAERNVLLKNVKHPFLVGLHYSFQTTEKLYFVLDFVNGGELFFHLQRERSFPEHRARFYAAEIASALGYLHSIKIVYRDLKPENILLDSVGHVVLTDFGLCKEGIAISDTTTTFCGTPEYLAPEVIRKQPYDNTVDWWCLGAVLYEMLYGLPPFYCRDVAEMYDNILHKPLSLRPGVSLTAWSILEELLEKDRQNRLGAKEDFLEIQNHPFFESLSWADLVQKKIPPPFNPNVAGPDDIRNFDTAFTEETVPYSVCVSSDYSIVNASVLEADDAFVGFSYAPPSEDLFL

[3] = biological target: panel of 255 wild-type kinases (Homo sapiens, UniProt P29317)
[4] = biological target: T3, panel of 255 wild-type kinases (Homo sapiens, UniProt P21709)
T3 sequence (P21709 26-976): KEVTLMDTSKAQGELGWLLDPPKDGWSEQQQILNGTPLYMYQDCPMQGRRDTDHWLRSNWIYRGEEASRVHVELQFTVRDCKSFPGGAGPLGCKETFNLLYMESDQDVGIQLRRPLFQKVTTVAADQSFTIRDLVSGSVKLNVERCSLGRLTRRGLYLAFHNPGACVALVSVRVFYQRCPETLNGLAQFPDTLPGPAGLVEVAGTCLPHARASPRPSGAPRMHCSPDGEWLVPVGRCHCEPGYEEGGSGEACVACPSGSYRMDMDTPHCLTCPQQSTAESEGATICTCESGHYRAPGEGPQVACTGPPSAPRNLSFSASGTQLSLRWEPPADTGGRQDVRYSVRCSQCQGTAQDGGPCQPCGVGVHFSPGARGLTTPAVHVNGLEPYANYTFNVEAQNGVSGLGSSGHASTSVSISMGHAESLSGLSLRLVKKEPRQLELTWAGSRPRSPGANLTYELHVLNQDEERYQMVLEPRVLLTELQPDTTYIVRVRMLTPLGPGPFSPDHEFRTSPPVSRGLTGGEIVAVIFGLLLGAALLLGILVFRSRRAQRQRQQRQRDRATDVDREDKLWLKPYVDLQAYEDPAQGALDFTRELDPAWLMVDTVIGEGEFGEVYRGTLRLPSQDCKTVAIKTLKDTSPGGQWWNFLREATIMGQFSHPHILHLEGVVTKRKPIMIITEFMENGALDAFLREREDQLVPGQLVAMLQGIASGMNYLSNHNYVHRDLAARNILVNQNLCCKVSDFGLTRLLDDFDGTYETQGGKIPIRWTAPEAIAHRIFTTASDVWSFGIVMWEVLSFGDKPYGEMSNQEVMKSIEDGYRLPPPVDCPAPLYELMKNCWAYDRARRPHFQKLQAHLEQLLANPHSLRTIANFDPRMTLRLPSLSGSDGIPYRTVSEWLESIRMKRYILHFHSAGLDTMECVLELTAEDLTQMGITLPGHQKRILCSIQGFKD

[5] = biological target: panel of 255 wild-type kinases (Homo sapiens, UniProt Q86V86)
[6] = biological target: panel of 255 wild-type kinases (Homo sapiens, UniProt P42685)
[7] = kinase TSSK1, 1 µmol/L single concentration, ref DOI: 10.1158/1535-7163.MCT-18-0877
[8] = kinase SGK3, 1 µmol/L single concentration, ref DOI: 10.1158/1535-7163.MCT-18-0877
[9] = kinase EPHA2, 1 µmol/L single concentration, ref DOI: 10.1158/1535-7163.MCT-18-0877
[10] = kinase EPHA1, 1 µmol/L single concentration, ref DOI: 10.1158/1535-7163.MCT-18-0877
[11] = kinase PIM3, 1 µmol/L single concentration, ref DOI: 10.1158/1535-7163.MCT-18-0877
[12] = kinase FRK, 1 µmol/L single concentration, ref DOI: 10.1158/1535-7163.MCT-18-0877
[13] = kinase TSSK1, 1 µmol/L single concentration, ref DOI: 10.1371/journal.pone.0092146
[14] = kinase SGK3, 1 µmol/L single concentration, ref DOI: 10.1371/journal.pone.0092146
[15] = kinase EPHA2, 1 µmol/L single concentration, ref DOI: 10.1371/journal.pone.0092146
[16] = kinase EPHA1, 1 µmol/L single concentration, ref DOI: 10.1371/journal.pone.0092146
[17] = kinase PIM3, 1 µmol/L single concentration, ref DOI: 10.1371/journal.pone.0092146
[18] = kinase FRK, 1 µmol/L single concentration, ref DOI: 10.1371/journal.pone.0092146

## CC#CC(=O)N1CCC[C@H]1c1nc(-c2ccc(C(=O)Nc3ccccn3)cc2)c2c(N)nccn12 [acalabrutinib]
[1]; [7]
  %-inhibition at 1 µmol/L, TSSK1: -7%
[2]; [8]
  %-inhibition at 1 µmol/L, SGK3: -12%
[3]; [9]
  %-inhibition at 1 µmol/L, EPHA2: -3.6%
[4]; [10]
  %-inhibition at 1 µmol/L, EPHA1: -0.591%
[5]; [11]
  %-inhibition at 1 µmol/L, PIM3: -0.0376%
[6]; [12]
  %-inhibition at 1 µmol/L, FRK: 47%

## CCc1cc2c(cc1N1CCC(N3CCOCC3)CC1)C(C)(C)c1[nH]c3cc(C#N)ccc3c1C2=O [alectinib]
[1]; [7]
  %-inhibition at 1 µmol/L, TSSK1: 22%
[2]; [8]
  %-inhibition at 1 µmol/L, SGK3: 1.51%
[3]; [9]
  %-inhibition at 1 µmol/L, EPHA2: 1.88%
[4]; [10]
  %-inhibition at 1 µmol/L, EPHA1: 5.62%
[5]; [11]
  %-inhibition at 1 µmol/L, PIM3: 52%
[6]; [12]
  %-inhibition at 1 µmol/L, FRK: 53%

## COc1cc(N2CCC(N3CCN(C)CC3)CC2)ccc1Nc1ncc(Cl)c(Nc2ccccc2P(C)(C)=O)n1 [brigatinib]
[1]
  %-inhibition at 1 µmol/L, TSSK1: 101%
[2]
  %-inhibition at 1 µmol/L, SGK3: -2.26%
[3]
  %-inhibition at 1 µmol/L, EPHA2: -2.16%
[4]
  %-inhibition at 1 µmol/L, EPHA1: 61%
[5]
  %-inhibition at 1 µmol/L, PIM3: 5.69%
[6]
  %-inhibition at 1 µmol/L, FRK: 104%

## Cc1cc(Nc2ncc(Cl)c(Nc3ccccc3S(=O)(=O)C(C)C)n2)c(OC(C)C)cc1C1CCNCC1 [ceritinib]
[1]; [7]
  %-inhibition at 1 µmol/L, TSSK1: 101%
[2]; [8]
  %-inhibition at 1 µmol/L, SGK3: -0.738%
[3]; [9]
  %-inhibition at 1 µmol/L, EPHA2: 5.69%
[4]; [10]
  %-inhibition at 1 µmol/L, EPHA1: 45%
[5]; [11]
  %-inhibition at 1 µmol/L, PIM3: -0.463%
[6]; [12]
  %-inhibition at 1 µmol/L, FRK: 85%

## O=C(c1ccc(F)c(F)c1Nc1ccc(I)cc1F)N1CC(O)([C@@H]2CCCCN2)C1 [cobimetinib]
[1]; [7]
  %-inhibition at 1 µmol/L, TSSK1: 7%
[2]; [8]
  %-inhibition at 1 µmol/L, SGK3: -4%
[3]; [9]
  %-inhibition at 1 µmol/L, EPHA2: 2.79%
[4]; [10]
  %-inhibition at 1 µmol/L, EPHA1: 0.613%
[5]; [11]
  %-inhibition at 1 µmol/L, PIM3: -0.814%
[6]; [12]
  %-inhibition at 1 µmol/L, FRK: 0.866%

## C[C@@H](Oc1cc(-c2cnn(C3CCNCC3)c2)cnc1N)c1c(Cl)ccc(F)c1Cl [crizotinib]
[1]; [13]
  %-inhibition at 1 µmol/L, TSSK1: 21%
[2]; [14]
  %-inhibition at 1 µmol/L, SGK3: -3%
[3]; [15]
  %-inhibition at 1 µmol/L, EPHA2: 86%
[4]; [16]
  %-inhibition at 1 µmol/L, EPHA1: 97%
[5]; [17]
  %-inhibition at 1 µmol/L, PIM3: -4%
[6]; [18]
  %-inhibition at 1 µmol/L, FRK: 26%

## CC(C)(C)c1nc(-c2cccc(NS(=O)(=O)c3c(F)cccc3F)c2F)c(-c2ccnc(N)n2)s1 [dabrafenib]
[1]; [13]
  %-inhibition at 1 µmol/L, TSSK1: 8%
[2]; [14]
  %-inhibition at 1 µmol/L, SGK3: 0.0854%
[3]; [15]
  %-inhibition at 1 µmol/L, EPHA2: 7%
[4]; [16]
  %-inhibition at 1 µmol/L, EPHA1: 44%
[5]; [17]
  %-inhibition at 1 µmol/L, PIM3: 9%
[6]; [18]
  %-inhibition at 1 µmol/L, FRK: 81%

## C=CC(=O)N1CCC[C@@H](n2nc(-c3ccc(Oc4ccccc4)cc3)c3c(N)ncnc32)C1 [ibrutinib]
[1]; [7]
  %-inhibition at 1 µmol/L, TSSK1: 9%
[2]; [8]
  %-inhibition at 1 µmol/L, SGK3: 0.579%
[3]; [9]
  %-inhibition at 1 µmol/L, EPHA2: 7%
[4]; [10]
  %-inhibition at 1 µmol/L, EPHA1: 50%
[5]; [11]
  %-inhibition at 1 µmol/L, PIM3: -0.241%
[6]; [12]
  %-inhibition at 1 µmol/L, FRK: 100%

## CO[C@@H]1[C@H](N(C)C(=O)c2ccccc2)C[C@H]2O[C@]1(C)n1c3ccccc3c3c4c(c5c6ccccc6n2c5c31)C(=O)NC4 [midostaurin]
[1]; [7]
  %-inhibition at 1 µmol/L, TSSK1: 95%
[2]; [8]
  %-inhibition at 1 µmol/L, SGK3: 16%
[3]; [9]
  %-inhibition at 1 µmol/L, EPHA2: 3.36%
[4]; [10]
  %-inhibition at 1 µmol/L, EPHA1: 9%
[5]; [11]
  %-inhibition at 1 µmol/L, PIM3: 71%
[6]; [12]
  %-inhibition at 1 µmol/L, FRK: 70%

## C=CC(=O)Nc1cc(Nc2nccc(-c3cn(C)c4ccccc34)n2)c(OC)cc1N(C)CCN(C)C [osimertinib]
[1]; [7]
  %-inhibition at 1 µmol/L, TSSK1: 76%
[2]; [8]
  %-inhibition at 1 µmol/L, SGK3: 3.6%
[3]; [9]
  %-inhibition at 1 µmol/L, EPHA2: 3.35%
[4]; [10]
  %-inhibition at 1 µmol/L, EPHA1: 13%
[5]; [11]
  %-inhibition at 1 µmol/L, PIM3: 15%
[6]; [12]
  %-inhibition at 1 µmol/L, FRK: 34%

## CC(=O)Nc1cccc(-n2c(=O)n(C3CC3)c(=O)c3c(Nc4ccc(I)cc4F)n(C)c(=O)c(C)c32)c1 [trametinib]
[1]; [13]
  %-inhibition at 1 µmol/L, TSSK1: -5%
[2]; [14]
  %-inhibition at 1 µmol/L, SGK3: 0.769%
[3]; [15]
  %-inhibition at 1 µmol/L, EPHA2: -8.53%
[4]; [16]
  %-inhibition at 1 µmol/L, EPHA1: -1.61%
[5]; [17]
  %-inhibition at 1 µmol/L, PIM3: 8.44%
[6]; [18]
  %-inhibition at 1 µmol/L, FRK: -3%

## CCCS(=O)(=O)Nc1ccc(F)c(C(=O)c2c[nH]c3ncc(-c4ccc(Cl)cc4)cc23)c1F [vemurafenib]
[1]; [13]
  %-inhibition at 1 µmol/L, TSSK1: -4%
[2]; [14]
  %-inhibition at 1 µmol/L, SGK3: -2.38%
[3]; [15]
  %-inhibition at 1 µmol/L, EPHA2: 0.715%
[4]; [16]
  %-inhibition at 1 µmol/L, EPHA1: -9%
[5]; [17]
  %-inhibition at 1 µmol/L, PIM3: -5%
[6]; [18]
  %-inhibition at 1 µmol/L, FRK: 62%
